Data from US12318393B2, “Modulators of orphan nuclear receptors for NASH and other metabolic disorders” (Emory University, priority 2018, dated 2025).

Tests used:
Assay type in all cases: cell-based
RORα = target: T1, RORα (Homo sapiens, UniProt P35398); test: RORα activity by luciferase reporter (miR-122 promoter with WT or mutated RORE) in Huh-7 cells; conditions: 24 hours of treatment
T1 construct: endogenous in cells; host or cells: Huh-7 (human hepatocellular carcinoma cells)
T1 sequence (P35398 1-523): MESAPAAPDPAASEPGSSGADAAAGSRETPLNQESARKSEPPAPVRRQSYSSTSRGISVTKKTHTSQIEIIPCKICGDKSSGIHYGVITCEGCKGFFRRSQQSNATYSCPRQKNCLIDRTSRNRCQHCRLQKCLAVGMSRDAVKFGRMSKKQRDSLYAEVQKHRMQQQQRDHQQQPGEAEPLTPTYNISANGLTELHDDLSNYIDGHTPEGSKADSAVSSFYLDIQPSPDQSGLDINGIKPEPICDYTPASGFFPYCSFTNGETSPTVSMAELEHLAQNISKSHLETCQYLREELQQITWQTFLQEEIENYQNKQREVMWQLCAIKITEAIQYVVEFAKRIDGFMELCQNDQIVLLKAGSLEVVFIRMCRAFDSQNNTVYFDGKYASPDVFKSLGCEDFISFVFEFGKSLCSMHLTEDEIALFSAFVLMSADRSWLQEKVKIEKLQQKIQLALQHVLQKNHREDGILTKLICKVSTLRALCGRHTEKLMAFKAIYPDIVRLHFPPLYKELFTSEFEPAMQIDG
Description: Huh-7 cells were transfected with a luciferase reporter plasmid containing the miR-122 promoter (extends to −900 from the transcription start site) with intact wild-type (WT) RORα response element (RORE) or mutated RORE (mut). The cells were treated with Compound 1 one day (24 hours) post-transfection at the indicated concentrations. Luciferase expression was measured after 24 hours of treatment and normalized to Renilla Luciferase activity expressed from a co-transfected pRL plasmid. The pRL Vector, which provides constitutive expression of Renilla luciferase, was used in combination with a firefly luciferase vector to co-transfect cells. […]
Luciferase assay. […] Firefly and Renilla luciferase activity was assessed using the Dual Luciferase Reporter Assay system (Promega). Readings were taken in triplicates on a Mithras LB 940 Luminometer (Berthold Technologies). […]
Following transfections, the cells were lysed with passive lysis buffer (Cat #E1941; Promega), shaking for 20 min at RT and transferred into appropriate 96-well plate. Firefly and Renilla luciferase activity was assessed using the Dual Luciferase Reporter Assay system (Cat #E1910; Promega) on a luminometer Mithras 2000 (Centro XZ, LB960, Berthold Technologies, Bad Wildbad, Germany). […] Readings were taken in triplicate.

[1] = Cellular toxicity assay in human PBM cells; conditions: read-out: Cytotoxicity (IC50, μM) PBM
Description: (§1) The toxicity of the compounds was assessed in human PBM, CEM (human lymphoblastoid), and Huh-7 cells, as described previously (see Schinazi R. F., Sommadossi J.-P., Saalmann V., Cannon D. L., Xie M.-Y., Hart G. C., Smith G. A. & Hahn E. F. Antimicrob. Agents Chemother. 1990, 34, 1061-67). Cycloheximide was included as positive cytotoxic control, and untreated cells exposed to solvent were included as negative controls. The cytotoxicity IC50 was obtained from the concentration-response curve using the median effective method described previously (see Chou T.-C. & Talalay P. Adv. Enzyme Regul. 1984, 22, 27-55; Belen'kii M. S. & Schinazi R. F. Antiviral Res. 1994, 25, 1-11).

[2] = Cellular toxicity assay in Huh-7 cells; conditions: human, read-out: Cytotoxicity (IC50, μM) Huh-7
Description: as §1

CD4+ Th17 cells = test: Modulation of Th17 populations in human PBMCs (flow cytometry); conditions: 10 μM, 3 day assay
Description: Human peripheral blood mononuclear cells (PBMCs) were isolated from four healthy donors. Four experiments were conducted and analyzed by flow cytometry over 3 day assay. The control group had no drug treatment, a second were treated with 10 μM Compound 1, a third group was stimulated with PHA/IL-2 without treatment, and the fourth group was stimulated with PHA/IL-2 and incubated with 10 μM Compound 1. […] Further, Compound 1 has no effect on Th17 populations in the absence of PHA/IL-2 stimulation.

luciferase expression, mutated RORE (RORα; Huh-7, miR-122 promoter reporter with mutated RORE): negates activity
luciferase expression, WT RORE (RORα; Huh-7, miR-122 promoter reporter with wild-type RORE): dose-dependent increase
SMILES: O=C1Nc2cc(C(=O)N3CCC(Cc4ccccc4)CC3)ccc2Nc2ccccc21 [Compound 1]
IC50 [1]: 92.4 µM
IC50 [2]: 10.4 µM
total viability of CD4+ T cells (CD4+ Th17 cells; even under PHA/IL-2 stimulation): no effect
Th17 total population, presence of PHA/IL-2 stimulation (CD4+ Th17 cells; relative to vehicle-control): decreases
Th17 populations, absence of PHA/IL-2 stimulation (CD4+ Th17 cells; unstimulated): no effect
